Assays:
Neprilysin = biological target: T1, Neprilysin (Rattus norvegicus, UniProt P07861); experiment: Tested in vitro for the inhibition against neutral endopeptidase (NEP) from rat kidney
T1 sequence (P07861 whole entry): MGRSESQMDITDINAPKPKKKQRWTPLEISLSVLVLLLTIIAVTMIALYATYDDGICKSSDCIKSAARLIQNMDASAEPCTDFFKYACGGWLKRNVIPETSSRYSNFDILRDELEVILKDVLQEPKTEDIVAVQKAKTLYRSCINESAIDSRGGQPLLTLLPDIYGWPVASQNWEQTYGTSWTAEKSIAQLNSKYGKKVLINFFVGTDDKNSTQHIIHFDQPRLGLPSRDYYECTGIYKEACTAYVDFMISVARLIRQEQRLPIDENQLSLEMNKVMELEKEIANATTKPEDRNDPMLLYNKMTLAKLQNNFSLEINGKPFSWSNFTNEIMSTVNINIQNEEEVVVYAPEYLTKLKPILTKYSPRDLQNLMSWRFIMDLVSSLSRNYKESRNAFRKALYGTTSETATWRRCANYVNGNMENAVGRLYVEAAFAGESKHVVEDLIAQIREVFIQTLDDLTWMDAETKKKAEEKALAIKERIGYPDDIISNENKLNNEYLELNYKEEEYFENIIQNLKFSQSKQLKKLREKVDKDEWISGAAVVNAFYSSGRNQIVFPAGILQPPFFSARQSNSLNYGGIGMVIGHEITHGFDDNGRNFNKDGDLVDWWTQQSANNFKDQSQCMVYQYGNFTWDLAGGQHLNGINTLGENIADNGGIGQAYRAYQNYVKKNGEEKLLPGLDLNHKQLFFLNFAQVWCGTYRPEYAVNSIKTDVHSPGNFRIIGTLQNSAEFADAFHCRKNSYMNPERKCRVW

[1] = biological target: T2, Angiotensin-converting enzyme (Oryctolagus cuniculus, UniProt P12822); experiment: Tested in vitro for the inhibition of angiotensin converting enzyme from rabbit lung
T2 sequence (P12822 whole entry): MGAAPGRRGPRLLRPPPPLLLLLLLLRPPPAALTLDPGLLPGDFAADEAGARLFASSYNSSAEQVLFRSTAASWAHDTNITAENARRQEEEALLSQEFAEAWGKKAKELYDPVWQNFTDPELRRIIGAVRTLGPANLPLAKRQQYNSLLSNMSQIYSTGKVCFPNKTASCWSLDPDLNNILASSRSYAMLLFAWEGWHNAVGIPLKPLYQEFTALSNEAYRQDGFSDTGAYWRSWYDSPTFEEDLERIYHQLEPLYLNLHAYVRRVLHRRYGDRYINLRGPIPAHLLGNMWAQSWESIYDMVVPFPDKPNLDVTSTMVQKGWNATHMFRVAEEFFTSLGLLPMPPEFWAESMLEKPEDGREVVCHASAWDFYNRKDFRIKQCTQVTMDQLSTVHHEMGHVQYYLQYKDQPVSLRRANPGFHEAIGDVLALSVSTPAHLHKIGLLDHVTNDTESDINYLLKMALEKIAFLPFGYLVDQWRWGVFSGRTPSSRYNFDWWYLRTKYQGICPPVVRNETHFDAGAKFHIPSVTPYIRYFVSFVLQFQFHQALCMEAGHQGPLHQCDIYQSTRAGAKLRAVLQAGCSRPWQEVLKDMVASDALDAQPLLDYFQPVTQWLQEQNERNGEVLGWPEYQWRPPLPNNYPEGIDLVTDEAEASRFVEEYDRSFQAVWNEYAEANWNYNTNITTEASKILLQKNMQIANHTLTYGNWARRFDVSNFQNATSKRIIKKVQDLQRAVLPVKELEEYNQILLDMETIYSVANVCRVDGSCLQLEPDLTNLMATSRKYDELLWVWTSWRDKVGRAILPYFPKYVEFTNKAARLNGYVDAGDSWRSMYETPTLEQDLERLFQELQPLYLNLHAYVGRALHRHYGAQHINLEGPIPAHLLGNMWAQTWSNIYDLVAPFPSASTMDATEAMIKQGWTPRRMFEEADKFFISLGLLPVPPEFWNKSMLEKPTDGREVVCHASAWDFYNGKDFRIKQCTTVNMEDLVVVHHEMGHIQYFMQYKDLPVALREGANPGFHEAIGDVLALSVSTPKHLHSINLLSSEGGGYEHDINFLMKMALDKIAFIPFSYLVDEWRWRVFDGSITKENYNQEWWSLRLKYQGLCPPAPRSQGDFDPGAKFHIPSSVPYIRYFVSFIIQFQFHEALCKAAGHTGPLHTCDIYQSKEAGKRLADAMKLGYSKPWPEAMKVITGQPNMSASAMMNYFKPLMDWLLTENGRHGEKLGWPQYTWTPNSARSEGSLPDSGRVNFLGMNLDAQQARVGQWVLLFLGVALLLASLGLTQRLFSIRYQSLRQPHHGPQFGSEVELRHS

Rattus norvegicus [2] = experiment: Tested for the inhibition of angiotensin I (AI) pressor response after 2 hours following an oral dose of 10 mg/kg; assay type: functional
Rattus norvegicus [3] = experiment: Tested for the inhibition of angiotensin I (AI) pressor response after 0.5 hour following an oral dose of 10 mg/kg; assay type: functional
Rattus norvegicus [4] = experiment: Tested for the inhibition of angiotensin I (AI) pressor response after 1 hour following an oral dose of 10 mg/kg; assay type: functional
Rattus norvegicus [5] = experiment: Tested for the plasma concentration based on ex vivo NEP inhibition after 2 hours following an oral dose of 10 mg/kg; assay type: functional, organism-based; set-up: dose 10 mg/kg
Rattus norvegicus [6] = experiment: Tested for the plasma concentration based on ex vivo NEP inhibition after 1 hour following an oral dose of 10 mg/kg; assay type: functional, organism-based; set-up: dose 10 mg/kg
Rattus norvegicus [7] = experiment: Tested for the plasma concentration based on ex vivo NEP inhibition after 0.5 hour following an oral dose of 10 mg/kg; assay type: functional, organism-based; set-up: dose 10 mg/kg
Rattus norvegicus [8] = experiment: Tested for the plasma concentration based on ex vivo NEP inhibition after 3 hours following an oral dose of 10 mg/kg; assay type: functional, organism-based; set-up: dose 10 mg/kg

SMILES	IC50 (Neprilysin)	IC50 [1]	inhibition in vivo at 10 mg/kg (Rattus norvegicus [2])	inhibition in vivo at 10 mg/kg (Rattus norvegicus [3])	inhibition in vivo at 10 mg/kg (Rattus norvegicus [4])	other results
O=C1N[C@H](C(=O)O)CSCCCCCCCC1CS (single isomer, unassigned; isomer A)	190 nM	72 nM				
O=C1N[C@H](C(=O)O)CSCCCCCCCC1CS (single isomer, unassigned; isomer B) [listing 1 of 2 here]	18 nM	12 nM	0%	71%	17%	
O=C1N[C@H](C(=O)O)CSCCCCCCCC1CS (single isomer, unassigned; isomer B) [listing 2 of 2 here]						Plasma concentration (Rattus norvegicus [5]): 0.17 µM; Plasma concentration (Rattus norvegicus [6]): 0.32 µM; Plasma concentration (Rattus norvegicus [7]): 1.81 µM; Plasma concentration (Rattus norvegicus [8]): 0.06 µM
O=C(O)CN1C(=O)[C@@H](N[C@@H](CCc2ccccc2)C(=O)O)CCc2ccccc21 [BENAZEPRILAT]			77%	100%	86%	

Continued, in another order:

IC50 (Neprilysin)	IC50 [1]	SMILES	inhibition in vivo at 10 mg/kg (Rattus norvegicus [2])	inhibition in vivo at 10 mg/kg (Rattus norvegicus [3])	inhibition in vivo at 10 mg/kg (Rattus norvegicus [4])	other results
1300 nM	4600 nM	O=C1N[C@H](C(=O)O)CSCCCCCCCCC1CS (stereo in doubt; 12a)				
167 nM	17 nM	O=C1N[C@H](C(=O)O)CSCCCCCCCCC1CS (stereo in doubt; 12b)				
